Counter-ions that a name gives are not always drawn.
System: Acinetobacter baumannii ATCC17961
Assay: Antimicrobial susceptibility testing: 90% growth inhibitory concentration (IC90) determination, Iso-Sensitest broth
Assay type: cell-based
Settings: 90% growth inhibitory concentration, Acinetobacter baumannii ATCC17961, Iso-Sensitest broth; read-out: ATCC 17961 IC90
Summary of the method: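 Twofold serial dilutions (e.g. 10 to 0.02 μM final) were tested in Iso-Sensitest broth against ~5×10^(5) CFU/ml at 35±2 °C. OD600 was read every 20 min over 16 h. IC90 was derived from growth inhibition during the logarithmic phase.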

Compound | IC90 [nM]
COc1ccc(-c2cnc(C(=O)Nc3ccc(C(=O)N4CCN(C(=O)C5CCN(S(=O)(=O)CCN)CC5)CC4)c(Cl)c3)n2C)c(F)c1F [Example 242, N-[4-[4-[1-(2-aminoethylsulfonyl)pipe-ridine-4-carbonyl]piperazine-1-carbonyl]-3-chloro-phenyl]-5-(2,3-difluoro-4-methoxy-phenyl)-1-methyl-imidazole-2-carboxamide] | 90

Same assay, conditions: Acinetobacter baumannii, ATCC17961, 90% growth inhibitory concentration, Acinetobacter baumannii ATCC17961, Iso-Sensitest broth; read-out: ATCC 17961 IC90

IC90 [nM] | Compound
50 | Cn1c(-c2ccc(OCF)c(F)c2F)cnc1C(=O)Nc1ccc(C(=O)N2CCN(C(=O)[C@@H]3C[C@@H](O)CN3)CC2)c(Cl)c1 [Example 221, N-(3-chloro-4-(4-((2S,4R)-4-hydroxypyrrolidine-2-carbonyl)piperazine-1-carbonyl)phenyl)-5-(2,3-difluoro-4-(fluoromethoxy)phenyl)-1-methyl-1H-imidazole-2-carboxamide formate]
90 | CN(C)CC(=O)N1CCN(C(=O)c2ccc(NC(=O)c3ncc(-c4ccc(OCF)cc4F)n3C)cc2Cl)CC1 [Example 222, N-(3-chloro-4-(4-(dimethylglycyl)piperazine-1-carbonyl)phenyl)-5-(2-fluoro-4-(fluoromethoxy)phenyl)-1-methyl-1H-imidazole-2-carboxamide]
30 | Cn1c(-c2ccc(OC(F)F)c(F)c2F)cnc1C(=O)Nc1ccc(C(=O)N2CCN(C(=O)C[C@@H]3CCCN3)CC2)c(Cl)c1 [Example 224, (S)-N-(3-chloro-4-(4-(2-(pyrrolidin-2-yl)acetyl)piperazine-1-carbonyl)phenyl)-5-(4-(difluoromethoxy)-2,3-difluorophenyl)-1-methyl-1H-imidazole-2-carboxamide formate]
160 | Cc1cc(NC(=O)c2ncc(-c3ccc(OCC#N)c(F)c3F)n2C)ccc1C(=O)N1CCN(C(=O)[C@@H]2C[C@](C)(O)CN2)CC1 [Example 225, 5-[4-(cyanomethoxy)-2,3-difluoro-phenyl]-N-[4-[4-[(2S,4S)-4-hydroxy-4-methyl-pyrrolidine-2-carbonyl]piperazine-1-carbonyl]-3-methyl-phenyl]-1-methyl-imidazole-2-carboxamide formate]
130 | CC[C@@]1(O)CN[C@H](C(=O)N2CCN(C(=O)c3ccc(NC(=O)c4ncc(-c5ccc(OCC#N)c(F)c5F)n4C)cc3C)CC2)C1 [Example 226, 5-[4-(cyanomethoxy)-2,3-difluoro-phenyl]-N-[4-[4-[(2S,4S)-4-ethyl-4-hydroxy-pyrrolidine-2-carbonyl]piperazine-1-carbonyl]-3-methyl-phenyl]-1-methyl-imidazole-2-carboxamide formate]
90 | Cn1c(-c2ccc(OCC#N)c(F)c2F)cnc1C(=O)Nc1ccc(C(=O)N2CCN(C(=O)[C@@H]3CCNC[C@H]3O)CC2)c(Cl)c1 [Example 227, N-(3-chloro-4-(4-((3S,4R)-3-hydroxypiperidine-4-carbonyl)piperazine-1-carbonyl)phenyl)-5-(4-(cyanomethoxy)-2,3-difluorophenyl)-1-methyl 1H-imidazole-2-carboxamide (S)-2-hydroxypropanoate]
180 | COc1ccc(-c2cnc(C(=O)Nc3ccc(C(=O)N4CCN(C(=O)[C@@H]5CCNC[C@@H]5O)CC4)c(Cl)c3)n2C)c(F)c1F [Example 228, N-[3-chloro-4-[4-[(3R,4R)-3-hydroxypiperidine-4-carbonyl]piperazine-1-carbonyl]phenyl]-5-(2,3-difluoro-4-methoxy-phenyl)-1-methyl-imidazole-2-carboxamide]
90 | COc1ccc(-c2cnc(C(=O)Nc3ccc(C(=O)N4CCN(C(=O)[C@H]5CCNC[C@H]5O)CC4)c(Cl)c3)n2C)c(F)c1F [Example 229, N-[3-chloro-4-[4-[(3S,4S)-3-hydroxypiperidine-4-carbonyl]piperazine-1-carbonyl]phenyl]-5-(2,3-difluoro-4-methoxy-phenyl)-1-methyl-imidazole-2-carboxamide]
100 | COc1ccc(-c2cnc(C(=O)Nc3ccc(C(=O)N4CCN(C(=O)[C@@H]5CCNC[C@H]5O)CC4)c(Cl)c3)n2C)c(F)c1F [Example 230, N-[3-chloro-4-[4-[(3S,4R)-3-hydroxypiperidine-4-carbonyl]piperazine-1-carbonyl]phenyl]-5-(2,3-difluoro-4-methoxy-phenyl)-1-methyl-imidazole-2-carboxamide formate]
160 | COc1ccc(-c2cnc(C(=O)Nc3ccc(C(=O)N4CCN(C(=O)[C@H]5CCNC[C@@H]5O)CC4)c(Cl)c3)n2C)c(F)c1F [Example 231, N-[3-chloro-4-[4-[(3R,4S)-3-hydroxypiperidine-4-carbonyl]piperazine-1-carbonyl]phenyl]-5-(2,3-difluoro-4-methoxy-phenyl)-1-methyl-imidazole-2-carboxamide formate]
90 | COc1ccc(-c2cnc(C(=O)Nc3ccc(C(=O)N4CCN(C(=O)[C@@H]5C[C@](C)(O)CN5)CC4)c(Cl)c3)n2C)c(F)c1F [Example 232, N-[3-chloro-4-[4-[(2S,4S)-4-hydroxy-4-methyl-pyrrolidine-2-carbonyl]piperazine-1-carbonyl]phenyl]-5-(2,3-difluoro-4-methoxy-phenyl)-1-methyl-imidazole-2-carboxamide formate]
130 | CC[C@@]1(O)CN[C@H](C(=O)N2CCN(C(=O)c3ccc(NC(=O)c4ncc(-c5ccc(OC)c(F)c5F)n4C)cc3Cl)CC2)C1 [Example 233, N-[3-chloro-4-[4-[(2S,4S)-4-ethyl-4-hydroxy-pyrrolidine-2-carbonyl]piperazine-1-carbonyl]phenyl]-5-(2,3-difluoro-4-methoxy-phenyl)-1-methyl-imidazole-2-carboxamide formate]
180 | COc1ccc(-c2cnc(C(=O)Nc3ccc(C(=O)N4CCN(C(=O)[C@@H]5CCNC[C@@H]5O)CC4)c(C)c3)n2C)c(F)c1F [Example 234, 5-(2,3-difluoro-4-methoxy-phenyl)-N-[4-[4-[(3R,4R)-3-hydroxypiperidine-4-carbonyl]piperazine-1-carbonyl]-3-methyl-phenyl]-1-methyl-imidazole-2-carboxamide formate]
60 | COc1ccc(-c2cnc(C(=O)Nc3ccc(C(=O)N4CCC(NS(=O)(=O)CCN)CC4)c(Cl)c3)n2C)c(F)c1F [Example 236, N-[4-[4-(2-aminoethylsulfonylami-no)piperidine-1-carbonyl]-3-chloro-phenyl]-5-(2,3-difluoro-4-methoxy-phenyl)-1-methyl-imidazole-2-carboxamide]
50 | COc1ccc(-c2cnc(C(=O)Nc3ccc(C(=O)N4CCC(NS(=O)(=O)C5CCNC5)CC4)c(Cl)c3)n2C)c(F)c1F (stereo not drawn) [Example 237, N-[3-chloro-4-[4-(pyrrolidin-3-ylsulfonylamino)piper-idine-1-carbonyl]phenyl]-5-(2,3-difluoro-4-methoxy-phenyl)-1-methyl-imidazole-2-carboxamide]
130 | COc1ccc(-c2cnc(C(=O)Nc3ccc(C(=O)N4CCC(NS(C)(=O)=O)CC4)c(Cl)c3)n2C)c(F)c1F [Example 238, N-[3-chloro-4-[4-(methanesulfonamido)piperidine-1-carbonyl]phenyl]-5-(2,3-difluoro-4-methoxy-phenyl)-1-methyl-imidazole-2-carboxamide]
150 | COc1ccc(-c2cnc(C(=O)Nc3ccc(C(=O)N4CCN(S(=O)(=O)CCN)CC4)c(Cl)c3)n2C)c(F)c1F [Example 239, N-[4-[4-(2-aminoethylsulfonyl)piper-razine-1-carbonyl]-3-chloro-phenyl]-5-(2,3-difluoro-4-methoxy-phenyl)-1-methyl-imidazole-2-carboxamide]
320 | COc1ccc(-c2cnc(C(=O)Nc3ccc(C(=O)N4CCN(S(C)(=O)=O)CC4)c(Cl)c3)n2C)c(F)c1F [Example 240, N-[3-chloro-4-(4-methylsulfonylpiperazine-1-carbonyl)phenyl]-5-(2,3-difluoro-4-methoxy-phenyl)-1-methyl-imidazole-2-carboxamide]
150 | COc1ccc(-c2cnc(C(=O)Nc3ccc(C(=O)N4CCN(S(=O)(=O)C5CCNC5)CC4)c(Cl)c3)n2C)c(F)c1F (stereo not drawn) [Example 241, N-[3-chloro-4-(4-pyrrolidin-3-ylsulfonylpiperazine-1-carbonyl)phenyl]-5-(2,3-difluoro-4-methoxy-phenyl)-1-methyl-imidazole-2-carboxamide]
100 | COc1ccc(-c2cnc(C(=O)Nc3ccc(C(=O)N4CCN(CC(N)=O)CC4)c(Cl)c3)n2C)c(F)c1F [Example 244, N-[4-[4-(2-amino-2-oxo-ethyl)piperazine-1-carbonyl]-3-chloro-phenyl]-5-(2,3-difluoro-4-methoxy-phenyl)-1-methyl-imidazole-2-carboxamide]

Same assay, conditions: Acinetobacter baumannii, ATCC17961, read-out: ATCC 17961 IC90

Compound | IC90 [nM]
Cn1c(-c2ccc(OC(F)F)c(F)c2F)cnc1C(=O)Nc1ccc(C(=O)N2CCN(C(=O)CC3(O)CCNCC3)CC2)c(Cl)c1 [Example 223, N-(3-chloro-4-(4-(2-(4-hydroxypiperidin-4-yl)acetyl)piperazine-1-carbonyl)phenyl)-5-(4-(difluoromethoxy)-2,3-difluorophenyl)-1-methyl 1H-imidazole-2-carboxamide formate] | 50
COc1ccc(-c2cnc(C(=O)Nc3ccc(C(=O)N4CCC(NS(=O)(=O)C5CCNCC5)CC4)c(Cl)c3)n2C)c(F)c1F [Example 235, N-[3-Chloro-4-[4-(4-piperidylsulfonylamino)piperidine-1-carbonyl]phenyl]-5-(2,3-difluoro-4-methoxy-phenyl)-1-methyl-imidazole-2-carboxamide formate] | 60
Cn1c(-c2ccc(OC(F)F)c(F)c2F)cnc1C(=O)Nc1ccc(C(=O)N2CCC(C(=O)NCC3CNC3)CC2)c(Cl)c1 [Example 245, N-(Azetidin-3-ylmethyl)-1-[2-chloro-4-[[5-[4-(difluoromethoxy)-2,3-difluoro-phenyl]-1-methyl-imidazole-2-carbonyl]amino]benzoyl]piperidine-4-carboxamide trifluoroacetate] | 30

— patent publication US20220396565A1 (Hoffmann-La Roche Inc., priority 2020, published 2022)
